For one compound, solubility, maximum solubility achievable and lower solubility value results are on record in patent US20080200724A1, “Process and Compound” (NPIL Pharmaceuticals (UK) Ltd, priority 2005, published 2008).

The conditions of data set [1]: in propan-1-ol at 60° C. From the text:
In addition to methanol, other lower aliphatic alcohols were investigated. The solubility of BOC-protected 2R,3S—N-isobutyl-N-(2-hydroxy-3-amino-4-phenylbutyl)-p-nitrobenzene-sulfonylamide in propan-1-ol, propan-2-ol or butan-1-ol is too low to offer an economically viable process. […] The solubility of BOC-protected 2R,3S—N-isobutyl-N-(2-hydroxy-3-amino-4-phenylbutyl)-p-nitrobenzene-sulfonylamide in ethanol is better than that in C3 and C4-alcohols, but is still lower than the solubility in methanol. […] Similarly, acetone and 2-pentanone yield small acicular crystals.

For data set [2] the following is noted: solvent mixtures comprising methanol and one or more of toluene or ethyl acetate, typically. On the procedure: The upper and lower concentration values are therefore dependent on the solubility characteristics of the material and the solvent mixture of choice. […] Therefore, for a crystallisation regime starting at 60° C. and ending at 0° C., a saturated or partially saturated solution in methanol and toluene, ethyl acetate admixtures, the concentration of BOC-protected 2R,3S—N-isobutyl-N-(2-hydroxy-3-amino-4-phenylbutyl)-p-nitrobenzene-sulfonylamide is in the range from 0.3 to 24% w/w.

Regarding `CC(C)CN(C[C@@H](O)[C@H](Cc1ccccc1)NC(=O)OC(C)(C)C)S(=O)(=O)c1ccc([N+](=O)[O-])cc1` [BOC-protected 2R,3S—N-isobutyl-N-(2-hydroxy-3-amino-4-phenylbutyl)-p-nitrobenzene-sulfonylamide], in data set [1], the solubility result is “less than 3 % w/w”. Also, in data set [2] (60° C.), the maximum solubility achievable turned out to be 24 % w/w. Moreover, in data set [2] (end-point temperature of 0° C.), the lower solubility value is given as 0.3 % w/w.
